The record followed here is ChEMBL document CHEMBL1201862, “PubChem BioAssay data set” (2004).

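96-well plates; 48 h exposure; 5 concentrations. Endpoints by linear interpolation between flanking doses. Not reached: highest tested concentration assigned. Abbreviation: GI50, concentration required for 50% inhibition of growth.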 Calls of active or inactive are those of the source. Cut-off read from the data, not from the text of the source: active = GI50 up to about 1.1 µM and inactive = higher. A value given as a limit tells only on which side of the number the result lay.

Test systems include ACHN; BT-549; EKVX; HCT-116; HCT-15; HL-60; IGROV-1; KM12; MCF7; Malme-3M; NCI-H23; NCI-H460; NCI-H522; NCI/ADR-RES; OVCAR-4; SK-MEL-5; SNB-75; SW-620; TK-10; UACC-62.
Common to all, as to assay: NCI tumour cell line growth inhibition, 48 h

For `Nc1nc(Cl)cc(NCC2(CO)CC(c3ccccc3)C2)n1` (stereo not given), the GI50 in the test on ACHN is 16.1 µM (inactive); in the test with BT-549, 29.3 µM (inactive); with EKVX, 5.41 µM (inactive); with HCT-116 it was 11.4 µM (inactive); in the test on HCT-15, 53 µM; with HL-60 it was 17.6 µM (inactive). Moreover, the GI50 was > 100 µM (inactive) in the test with IGROV-1; 39.5 µM (inactive) with KM12; 22.9 µM (inactive) with MCF7; 46.5 µM (inactive) in the test on Malme-3M; 3.57 µM (inactive) with NCI-H23; 43.4 µM (inactive) in the test with NCI-H460. Also, the GI50 is 37.9 µM (inactive) with NCI-H522; 13.8 µM (inactive) in the test on NCI/ADR-RES; 24.4 µM (inactive) in the test on OVCAR-4; 9.12 µM (inactive) in the test with SK-MEL-5; 18.1 µM (inactive) in the test with SNB-75; > 100 µM (inactive) in the test on SW-620. Besides, the GI50 was 95.1 µM (inactive) in the test on TK-10 and 32.4 µM (inactive) in the test with UACC-62.

With `[N-]=[N+]=NC1C(O)C(CO)OC1n1ccc(=O)[nH]c1=O` (stereo not given), the GI50 was > 875 µM (inactive) with ACHN; > 875 µM (inactive) in the test with BT-549; 344 µM (inactive) in the test with EKVX; > 875 µM (inactive) with HCT-116; greater than 875 µM in the test with HCT-15; 863 µM (inactive) in the test with HL-60. In addition, the GI50 in the test with IGROV-1, with KM12, in the test with MCF7, with Malme-3M, with NCI-H23 and with NCI-H460 was > 875 µM (inactive) throughout. For the same compound, the GI50 in the test on NCI-H522, in the test on NCI/ADR-RES, in the test on OVCAR-4, with SK-MEL-5, with SNB-75 and in the test on SW-620 was > 875 µM (inactive) each time. Also, the GI50 in the test on TK-10 and in the test on UACC-62 was > 875 µM (inactive) each time.

`Cc1ccc(C)n1-c1ccccc1C1C=Cn2c3c1c(=O)c(OC(C)C)c(OC(C)C)c-3n[nH]c2=O` (stereo not given): the GI50 in the test on ACHN was 45.8 µM (inactive); in the test on BT-549, 32.7 µM (inactive); with EKVX, 28.4 µM (inactive); in the test with HCT-116 it was 19.2 µM (inactive); in the test on HCT-15, 21.7 µM; in the test with HL-60, 5.45 µM (inactive). For the same compound, the GI50 in the test with IGROV-1 is 30.1 µM (inactive); with KM12, 19.9 µM (inactive); in the test on MCF7, 22.2 µM (inactive); with Malme-3M, 18.7 µM (inactive); in the test with NCI-H23, 53.8 µM (inactive); in the test with NCI-H460, 37.6 µM (inactive). Also, the GI50 in the test on NCI-H522 was 17 µM (inactive); with NCI/ADR-RES it was 32.6 µM (inactive); with OVCAR-4, 38.9 µM (inactive); in the test with SK-MEL-5, 5.01 µM (inactive); in the test on SNB-75 it was 25.4 µM (inactive); in the test on SW-620 it was 18.3 µM (inactive). Also, the values for the GI50 in the test with TK-10 and with UACC-62 were 44 µM (inactive) and 39.4 µM (inactive), respectively.

In the case of `Nc1ccc(S(=O)(=O)Nc2nccs2)cc1` [SULFATHIAZOLE], the GI50 in the test on ACHN was > 100 µM (inactive); in the test with BT-549, > 100 µM (inactive); in the test with EKVX, > 100 µM (inactive); with HCT-116, > 100 µM (inactive); in the test on HCT-15 it was greater than 100 µM; with HL-60 it was > 100 µM (inactive). The GI50 in the test on IGROV-1, in the test on KM12, in the test with MCF7, with Malme-3M, with NCI-H23 and with NCI-H460 was > 100 µM (inactive) in each case. Moreover, the GI50 was > 100 µM (inactive) in the test with NCI-H522; > 100 µM (inactive) in the test on NCI/ADR-RES; > 100 µM (inactive) in the test on OVCAR-4; > 100 µM (inactive) in the test on SK-MEL-5; 17 µM (inactive) with SNB-75; > 100 µM (inactive) with SW-620. The GI50 in the test with TK-10 and in the test with UACC-62 was > 100 µM (inactive) each time.

As for `COc1ccc(Cc2cc(OC)c(OC)c(OC)c2)cc1O`, the GI50 with ACHN was 0.167 µM (active); in the test with BT-549 it was < 0.01 µM (active); in the test on EKVX it was 24.7 µM (inactive); with HCT-116, 0.064 µM (active); in the test with HCT-15 it was 0.019 µM; with HL-60, 0.0235 µM (active). Moreover, the GI50 is 3.78 µM (inactive) with IGROV-1; 0.0193 µM (active) with KM12; 0.0244 µM (active) in the test on MCF7; 0.0389 µM (active) in the test on Malme-3M; 0.101 µM (active) with NCI-H23; 0.0841 µM (active) with NCI-H460. For the same compound, the GI50 in the test with NCI-H522 is 0.12 µM (active); with NCI/ADR-RES, < 0.01 µM (active); with OVCAR-4, 42.5 µM (inactive); in the test on SK-MEL-5, 0.0215 µM (active); in the test on SNB-75 it was < 0.01 µM (active); in the test on SW-620, < 0.01 µM (active). The figures for the GI50 in the test on TK-10 and in the test with UACC-62 were > 90.4 µM (inactive) and 0.457 µM (active), respectively.

Turning to `C=CCN(C(=O)OC(C)(C)C)C1=CC2C(C)=CN(S(=O)(=O)c3ccccc3)C2C(OCc2ccccc2)=C1` (stereo not given), the GI50 in the test on ACHN is > 100 µM (inactive); in the test with BT-549, > 100 µM (inactive); in the test with EKVX, > 100 µM (inactive); with HCT-116, 54 µM (inactive); with HCT-15, greater than 100 µM; with HL-60, > 100 µM (inactive). Besides, the GI50 with IGROV-1, with KM12, with MCF7, with Malme-3M, in the test on NCI-H23 and in the test on NCI-H460 was > 100 µM (inactive) each time. The GI50 in the test on NCI-H522 was > 100 µM (inactive); in the test with NCI/ADR-RES, > 100 µM (inactive); in the test with OVCAR-4, > 100 µM (inactive); with SK-MEL-5 it was > 100 µM (inactive); in the test with SNB-75, 6.18 µM (inactive); in the test with SW-620 it was > 100 µM (inactive). Besides, the GI50 with TK-10 and in the test on UACC-62 was > 100 µM (inactive) throughout.
